Measurements: patent publication US12263248B2, “Compounds and compositions for intracellular delivery of therapeutic agents” (ModernaTX, Inc., priority 2018, dated 2025)

Columns and labels:
[1] = Sprague Dawley, rat, in vivo, iv, 5 mg/kg, 20 min
Method: Sprague Dawley rats were administered with nanoparticles of the disclosure via i.v. bolus at 5 mpk. The nanoparticle contained two mRNA encoding a broadly neutralizing influenza antibody in a 2:1 ratio.

IL-6, MCP-1 = assay: Cytokine induction in non-human primates; assay type: in vivo, Cynomolgus monkeys
Method: (§1) The tolerability and efficacy of nanoparticle compositions to non-human primates was also investigated using a sample formulation including Compound 18. The formulation was prepared according to the standard MC3 formulation described above and included an hEPO mRNA. Primates were administered a single dose of 0.05 (Group 1), 0.3 (Group 2), or 1.0 (Group 3) mpk via intravenous infusion for 60 minutes. Three primates were administered each dose. Expression of hEPO was measured prior to dosing and at 2, 6, 24, 48, and 96 hours post-treatment (Table 26). Table 28 includes levels of indicators of complement activation, while Table 29 includes cytokine induction data.
hEPO ELISA for NHP samples: Human Epo levels were measured using a human erythropoietin immunoassay. Cytokines levels were measured using a non-human primate cytokine kit.

[2] = Lipid tissue accumulation in NHP after a single dose; details: 12 hours post dose
[3] = test system: ApoE-mediated LDLr dependent uptake; assay: Expression in ApoE knockout mice and LDLr knockout mice; details: mouse, in vivo
C5b9 = assay: Complement activation indicators in non-human primates; assay type: in vivo, Cynomolgus monkeys
Method: as §1
Serum C5b9 levels: C5b9 sample analysis was performed using an ELISA method. The kit used was Human C5b-9 ELISA Set and Reagent Set B from BD Bioscience. Study samples were analyzed in singlicate diluted 1/100.

## CCCCCCCCCOC(=O)CCCCCCCN(CCO)CCCCCCCC(=O)OC(CCCCCCCC)CCCCCCCC [Compound 18, Heptadecan-9-yl 8-((2-hydroxyethyl)(8-(nonyloxy)-8-oxooctyl)amino)octanoate]
[1]
  Clinical Observations: 20 min- Flushed ears and paws
IL-6, MCP-1; 0.05 mpk, 2 h
  IFNg: 18.8 pg/mL
  IFNα: 18.8 pg/mL
  IL-1b: 18.8 pg/mL
  IL-6: 18.8 pg/mL
  MCP-1: 342 pg/mL
  TNF-α: 18.8 pg/mL
IL-6, MCP-1; 0.05 mpk, 6 h
  IFNg: 18.8 pg/mL
  IFNα: 18.8 pg/mL
  IL-1b: 18.8 pg/mL
  IL-6: 18.8 pg/mL
  MCP-1: 543 pg/mL
  TNF-α: 41.5 pg/mL
IL-6, MCP-1; 0.05 mpk, 24 h
  IFNg: 18.8 pg/mL
  IFNα: 18.8 pg/mL
  IL-1b: 18.8 pg/mL
  IL-6: 18.8 pg/mL
  MCP-1: 236 pg/mL
  TNF-α: 17.6 pg/mL
IL-6, MCP-1; 0.05 mpk, Day 5
  IFNg: 39.3 pg/mL
  IFNα: 18.8 pg/mL
  IL-1b: 18.8 pg/mL
  IL-6: 18.8 pg/mL
  MCP-1: 232 pg/mL
  TNF-α: 63.5 pg/mL
IL-6, MCP-1; 0.05 mpk, Predose
  IFNg: 18.8 pg/mL
  IFNα: 18.8 pg/mL
  IL-1b: 18.8 pg/mL
  IL-6: 18.8 pg/mL
  MCP-1: 192 pg/mL
  TNF-α: 18.8 pg/mL
IL-6, MCP-1; 0.3 mpk, 2 h
  IFNg: 18.8 pg/mL
  IFNα: 18.8 pg/mL
  IL-1b: 18.8 pg/mL
  IL-6: 191 pg/mL
  MCP-1: 3018 pg/mL
  TNF-α: 38.2 pg/mL
IL-6, MCP-1; 0.3 mpk, 6 h
  IFNg: 18.8 pg/mL
  IFNα: 18.8 pg/mL
  IL-1b: 18.8 pg/mL
  IL-6: 33.0 pg/mL
  MCP-1: 2011 pg/mL
  TNF-α: 32.5 pg/mL
IL-6, MCP-1; 0.3 mpk, 24 h
  IFNg: 18.8 pg/mL
  IFNα: 18.8 pg/mL
  IL-1b: 18.8 pg/mL
  IL-6: 18.8 pg/mL
  MCP-1: 404 pg/mL
  TNF-α: 59.6 pg/mL
IL-6, MCP-1; 0.3 mpk, Day 5
  IFNg: 18.8 pg/mL
  IFNα: 18.8 pg/mL
  IL-1b: 18.8 pg/mL
  IL-6: 18.8 pg/mL
  MCP-1: 211 pg/mL
  TNF-α: 18.8 pg/mL
IL-6, MCP-1; 0.3 mpk, Predose
  IFNg: 18.8 pg/mL
  IFNα: 18.8 pg/mL
  IL-1b: 18.8 pg/mL
  IL-6: 18.8 pg/mL
  MCP-1: 168 pg/mL
  TNF-α: 18.8 pg/mL
IL-6, MCP-1; 1.0 mpk, 2 h
  IFNg: 35.8 pg/mL
  IFNα: 18.8 pg/mL
  IL-1b: 33.4 pg/mL
  IL-6: 834 pg/mL
  MCP-1: 4221 pg/mL
  TNF-α: 18.8 pg/mL
IL-6, MCP-1; 1.0 mpk, 6 h
  IFNg: 38.9 pg/mL
  IFNα: 18.8 pg/mL
  IL-1b: 18.8 pg/mL
  IL-6: 398 pg/mL
  MCP-1: 3945 pg/mL
  TNF-α: 18.8 pg/mL
IL-6, MCP-1; 1.0 mpk, 24 h
  IFNg: 18.8 pg/mL
  IFNα: 18.8 pg/mL
  IL-1b: 18.8 pg/mL
  IL-6: 31.4 pg/mL
  MCP-1: 1444 pg/mL
  TNF-α: 46.2 pg/mL
IL-6, MCP-1; 1.0 mpk, Day 5
  IFNg: 18.8 pg/mL
  IFNα: 18.8 pg/mL
  IL-1b: 18.8 pg/mL
  IL-6: 18.8 pg/mL
  MCP-1: 225 pg/mL
  TNF-α: 41.9 pg/mL
IL-6, MCP-1; 1.0 mpk, Predose
  IFNg: 18.8 pg/mL
  IFNα: 18.8 pg/mL
  IL-1b: 18.8 pg/mL
  IL-6: 18.8 pg/mL
  MCP-1: 235 pg/mL
  TNF-α: 18.8 pg/mL
[2]
  lipid levels in tissues: significantly lower levels
[3]
  expression in ApoE knockout mice and LDLr knockout mice: almost complete loss in expression
C5b9; 0.05 mpk, 2 h
  C3a: 19236 ng/mL
C5b9; 0.05 mpk, 24 h
  C5b9: 265 ng/mL
C5b9; 0.05 mpk, Day 5
  C5b9: 163 ng/mL
C5b9; 0.05 mpk, Predose
  C3a: 10600 ng/mL
C5b9; 0.3 mpk, 2 h
  C3a: 42897 ng/mL
C5b9; 0.3 mpk, 24 h
  C5b9: 614 ng/mL
C5b9; 0.3 mpk, Day 5
  C5b9: 405 ng/mL
C5b9; 0.3 mpk, Predose
  C3a: 9827 ng/mL
C5b9; 1.0 mpk, 2 h
  C3a: 75936 ng/mL
C5b9; 1.0 mpk, 24 h
  C5b9: 4798 ng/mL
C5b9; 1.0 mpk, Day 5
  C5b9: 534 ng/mL
C5b9; 1.0 mpk, Predose
  C3a: 12792 ng/mL
